Laboratory results as given in US20250129054A1 (Terran Biosciences Inc., priority 2022, published 2025).

How the values were obtained:
[1] = tested on: rat elevated zero maze model of anxiety; test: Rat elevated zero maze model of anxiety (% time on open areas, stretched attend postures); assay type: in vivo, Sprague-Dawley rats; settings: for anxiogenic effect: across the doses tested, ip
Description: The rat zero-maze model is a refined alternative to the plus-maze, the most widely used animal model of anxiety, and consists of an elevated annular platform, divided equally into four quadrants. Two opposite quadrants are enclosed by Perspex walls on both the inner and the outer edges of the platform, while the remaining two opposite quadrants are open being enclosed only by a Perspex “lip”. Animals will show a preference for the closed areas, and avoidance of the open sections is assumed to stem from a rodent's natural aversion to open, exposed spaces. The primary index of anxiety, which reflect changes in open arm preference, is the percentage of time spent on the open areas. A reduction in the amount of activity on the open areas is considered to reflect an increase in anxiety. Other, ethologically-based behaviours are also assessed as indices of anxiety. One of the most important is stretched attend postures (SAP) from closed to open quadrants. […] Shepherd, J K; et al., (1994) Behavioural and pharmacological validation of the elevated “zero-maze” as an animal model of anxiety. Psychopharmacol., 116:56-64.
Male Sprague-Dawley 200-250 g (Envigo UK) rats were used. Animals were group-housed (5 per cage; cage size: 40×40×20 cm) in a temperature-controlled environment (22±2° C.), under a 12 h light-dark cycle (lights on: 08:00 hours) for one week prior to testing. Food and water were freely available. Number of animals per group=5. Animals were moved into the experimental room 16-24 hours before testing.
The elevated 0-maze comprises a black Perspex annular platform (105 cm diameter, 10 cm width) elevated to 65 cm above ground level, divided equally into four quadrants. Two opposite quadrants are enclosed by clear red Perspex walls (27 cm high) on both the inner and outer edges of the platform, while the remaining two opposite quadrants are surrounded only by a Perspex “lip” (1 cm high) which serves as a tactile guide to animals on these open areas.
Subjects were weighed and tail marked before being injected. After a specified pre-treatment time, subjects were placed in a closed quadrant and a 5-min test period were recorded on videotape for subsequent analysis. The maze were cleaned with 5% methanol/water solution and dried thoroughly between test sessions. Behavioural measures comprise percentage time spent on the open areas (% TO) and frequency of stretched attend postures (SAP) from closed to open quadrants. Since the control groups were all treated identically with the same vehicle these were combined to increase power. The Chlordiazepoxide groups were also treated identically with the same dose so these were also combined to increase power. Animals are scored as being in the open area when all four paws were in an open quadrant and in the closed area only when all four paws have passed over the open-closed divide. All testing were carried out between 9.00 and 16.00 hours.
For each study, a 1-way ANOVA was conducted across vehicle, CDP, and drug treatment groups. Each group was compared to the vehicle group and a p-value for treatment determined by Fishers Least Significant Difference (LSD) test. This analysis was performed in GraphPad Prism (Version 9).
Intraperitoneal (IP): Racemic methylone HCl was formulated in Vehicle 1 (Saline) for injection to concentrations of 1, 3 and 6 mg/mL to provide doses of 5, 15 and 30 mg/kg when administered ip in 5 mL/kg dosing volumes.
Intraperitoneal (IP): S-methylone HCl was formulated in Vehicle 1 (Saline) for injection to concentrations of 0.5, 1, 1.5, 3 and 6 mg/mL to provide doses of 2.5, 5, 7.5, 15 and 30 mg/kg when administered ip in 5 mL/kg dosing volumes.
Intraperitoneal (IP): R-methylone HCl was formulated in Vehicle 1 (Saline) for injection to concentrations of 1, 3 and 6 mg/mL to provide doses of 5, 15 and 30 mg/kg when administered ip in 5 mL/kg dosing volumes. […]

[2] = tested on: post-traumatic stress disorder (PTSD); test: Double-blind, randomized, placebo-controlled clinical trial of methylone-assisted psychotherapy in PTSD; assay type: in vivo, human; settings: at Study Conclusion; for clinician-rated functional impairment score as measured by SDS / depression as measured by HAM-D: compared to placebo-treated controls; for change in CAPS-5 assessment: with psychotherapy, compared to the placebo group, PTSD participants
Procedure: A multicenter, randomized, double-blind, placebo-controlled trial is conducted to assess the efficacy and safety of methylone-assisted psychotherapy versus psychotherapy with placebo control in participants diagnosed with at least moderate post-traumatic stress disorder (PTSD).
This multicenter, randomized, double-blind, placebo-controlled trial is conducted at various sites in the United States with IRB approval from each study site. A flexible dose of methylone hydrochloride salt or placebo, followed by a supplemental half-dose unless contraindicated by patient's previous response or medical history, is also administered during the Treatment Period with psychotherapy in at least 3 blinded monthly Experimental Sessions. The Supplemental Dose extends the duration of drug effects on the participants during an Experimental Session. Methylone test groups are further subdivided into specific groups receiving only racemic methylone hydrochloride salt, S-methylone hydrochloride salt, or R-methylone hydrochloride salt. An optional Risk Evaluation and Mitigation Strategy (REMS) Protocol may be implemented for the racemic methylone, S-methylone, and placebo-groups. The Treatment Period lasts for approximately 12 weeks. During the Treatment Period, each Experimental Session is followed by three Intervening Sessions of non-drug psychotherapy. Each Experimental Session involves an overnight stay. The Primary Outcome measure, the change in Clinician Administered PTSD Scale for DSM-5 (CAPS-5), is determined by a blinded Independent Rater (IR) pool multiple times throughout the study. The study consists of separate periods for each participant. Initially, prospective participants undergo a Screening Period involving an initial eligibility assessment, a medical history intake, informed consent, and enrollment of eligible participants. Next, a Preparation Period is undertaken for enrolled participants involving medication tapering and clinical baseline assessments to confirm each participant meets enrollment criteria. As part of the Preparation Period, a detailed assessment of co-morbidities to PTSD is recorded. Participants may remain on prescribed courses of selective serotonin reuptake inhibitor (SSRI) or serotonin and norepinephrine reuptake inhibitor (SNRI) treatment. Dosages and/or frequency of administration of a prescribed SSRI or SNRI may be adjusted to fit within study parameters. Participants may be required to taper a prescribed course of medication in order to maintain eligibility within the study. The Treatment Period consists of three monthly Experimental Sessions and associated Intervening Sessions of integrative behavioral psychotherapy. The Treatment Period lasts approximately 12 weeks. Following the Treatment Period is a Follow-up Period and Study Conclusion. During the Follow-up Period and Study Conclusion, participants complete 4 weeks with no study visits, followed by a Study Conclusion visit.
This study compares the effects of three blinded Experimental Sessions of psychotherapy in combination with flexible doses of methylone or placebo administered as described below. Non-drug preparatory and intervening psychotherapy sessions are also included. Patient's weight is determined for dosage calculation. Initial dose is 100 mg unless this will result in a dosage of less than 1.5 mg/kg of patient weight. Initial dose thereby adjusted upward in 25 mg increments to deliver the lowest dose possible of at least 1.5 mg/kg of patient weight. Initial dose for Experimental Session 2 and 3 is cumulative dose calculated by adding the initial dose plus REMS protocol dose used the previous Experimental Session for each patient.
Randomization occurs prior to the initiation of Experimental Session 1. Each participant is provided the next randomized number in a sequence by a blinded study monitor. […]

[3] = 30 mg/kg ip, 30 min pretreatment, vs vehicle and chlordiazepoxide 6 mg/kg, male SD rats
[4] = specific (sufficient) doses ip, compared with chlordiazepoxide 6 mg/kg
[5] = dose response over 5, 15 and 30 mg/kg ip, male SD rats

Structure (SMILES) | frequency of SAPs ([1]; 2.5 mg/kg and 5 mg/kg ip, male SD rats) | frequency of SAPs ([1]; 7.5 mg/kg, 15 mg/kg and 30 mg/kg ip, male SD rats) | frequency of SAPs [1, 3] | time spent in the open arms [1, 3] | anxiogenic effect ([1]; male SD rats) | frequency of SAPs [1, 4] | time in the open arms [1, 4] | time spent in the open arms ([1]; trend over 5 mg/kg, 7.5 mg/kg and 15 mg/kg ip, male SD rats) | daytime sleepiness as measured by ESS [2] | clinician-rated functional impairment score as measured by SDS [2] | depression as measured by HAM-D [2] | change in CAPS-5 assessment [2] | frequency of SAPs [1, 5] | time spent in the open arms [1, 5]
CN[C@@H](C)C(=O)c1ccc2c(c1)OCO2 [S-methylone] | dose dependent increase in SAPs | dose dependent decrease in SAPS | even more effective than chlordiazepoxide at reducing SAPs | the time in the open arms increased | show anxiogenic effects at lower doses | decreased the frequency of SAPs as effectively as the benzodiazepine chlordiazepoxide | increase time in the open arms | the time spent in the open arms decreased as the dose increased | significant improvement in lessening daytime sleepiness | significant improvement | significant improvement | significant mean reduction | – | –
CN[C@H](C)C(=O)c1ccc2c(c1)OCO2 [R-methylone] | – | – | significantly decreasing SAPs to the same level as chlordiazepoxide | as effective as chlordiazepoxide | did not show any anxiogenic effect at any dose | decreased the frequency of SAPs as effectively as the benzodiazepine chlordiazepoxide | increase time in the open arms | – | significant improvement in lessening daytime sleepiness | significant improvement | significant improvement | significant mean reduction | dose dependent decrease in SAPs | dose dependent increase in time spent in the open arms
